The experiment concerns the target MAPK14 (human) (UniProt Q16539). The experiment can be described thus: Inhibition of MAPK14 Kinase Activity.

Chain of MAPK14 (human) (Q16539 whole entry, looked up): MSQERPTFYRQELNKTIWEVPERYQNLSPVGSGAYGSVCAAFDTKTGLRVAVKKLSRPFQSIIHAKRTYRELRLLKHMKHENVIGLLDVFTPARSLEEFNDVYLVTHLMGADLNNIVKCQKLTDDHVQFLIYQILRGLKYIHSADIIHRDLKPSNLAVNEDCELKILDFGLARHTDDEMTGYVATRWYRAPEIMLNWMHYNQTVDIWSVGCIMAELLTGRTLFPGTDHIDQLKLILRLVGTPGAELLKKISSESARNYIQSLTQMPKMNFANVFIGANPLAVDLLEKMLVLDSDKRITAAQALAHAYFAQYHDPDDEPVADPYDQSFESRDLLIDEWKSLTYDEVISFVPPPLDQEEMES

For the molecule `Cc1cc(Nc2c(C(=O)C3CCN(C)CC3)sc3c2ccc(=O)n3-c2ccccc2)ccc1F`, the IC50 – broadly, the midpoint of a concentration-inhibition curve – was under 1000 nM.

`Cc1cc(Nc2c(C(=O)NC3CNC3)sc3c2ccc(=O)n3-c2ccccc2)ccc1F` yielded an IC50 of under 1000 nM.

`CN1CC[C@@H](NC(=O)c2sc3c(ccc(=O)n3-c3ccccc3)c2Nc2ccc(F)cc2F)C1` showed an IC50 of under 1000 nM.

`O=C(NC1CCNC1)c1sc2c(ccc(=O)n2-c2ccccc2)c1Nc1ccc(F)cc1F` (stereo unspecified) showed an IC50 of under 1000 nM.

Regarding `O=C(N[C@@H]1CCC[C@@H]1O)c1sc2c(ccc(=O)n2-c2ccccc2)c1Nc1ccc(F)cc1F`, the IC50 is under 1000 nM.

`CN1CC[C@H](NC(=O)c2sc3c(ccc(=O)n3-c3ccccc3)c2Nc2ccc(F)cc2F)C1` registered an IC50 of under 1000 nM.

Take `CN1CCC(NC(=O)c2sc3c(ccc(=O)n3-c3ccccc3)c2Nc2ccc(F)cc2F)CC1`: the IC50 was under 1000 nM.

`O=C(N[C@@H]1CCC[C@H]1O)c1sc2c(ccc(=O)n2-c2ccccc2)c1Nc1ccc(F)cc1F`: the IC50 is under 1000 nM.

In the case of `O=C(N[C@@H]1CCNC1)c1sc2c(ccc(=O)n2-c2ccccc2)c1Nc1ccc(F)cc1F`, the half-maximal inhibitory concentration (IC50) is under 1000 nM.

Turning to `O=C(c1sc2c(ccc(=O)n2-c2ccccc2)c1Nc1ccc(F)cc1F)C1CCNCC1`, the IC50 was under 1000 nM.

Turning to `O=C(c1sc2c(ccc(=O)n2-c2ccccc2)c1Nc1ccccc1)C1CCNCC1`, the IC50 is under 1000 nM.

The molecule `O=C(NC1CCNCC1)c1sc2c(ccc(=O)n2-c2ccccc2)c1Nc1ccc(F)cc1F` had an IC50 of under 1000 nM.

Regarding `Cc1cc(Nc2c(C(=O)C3CCNCC3)sc3c2ccc(=O)n3-c2ccccc2)ccc1F`, the IC50 was under 1000 nM.

The molecule `O=C(N[C@H]1CCNC1)c1sc2c(ccc(=O)n2-c2ccccc2)c1Nc1ccc(F)cc1F` came in with an IC50 of under 1000 nM.

As for `O=C(N[C@H]1CCC[C@@H]1O)c1sc2c(ccc(=O)n2-c2ccccc2)c1Nc1ccc(F)cc1F`, the IC50 was under 1000 nM.

As to `Cc1cccc(Nc2c(C(=O)C3CCNCC3)sc3c2ccc(=O)n3-c2ccccc2)n1`, the IC50 is under 1000 nM.

The values are drawn from the Kinase Knowledgebase extract (Sharma et al. 2016).
